Experimental data taken from US20170119806A1, “[…] LACTONE DERIVATIVES AND METHODS OF MAKING AND USING THEREOF” (OHIO STATE INNOVATION FOUNDATION, priority 2014, published 2017).
Entries after “also recorded” stand apart in the source; their conditions may differ.

Key:
[1] = system: HT-29 human colon cancer cells; test: Cytotoxicity against HT-29 cells; conditions: read-out: IC50 values toward the HT-29 cells; Table 6; triplicate, two independent experiments
[2] = system: STAT3, STAT4, STAT5, T-BET; test: Immunoblotting of STATs and T-BET in NK cells; format: cell-based, human; conditions: 5 or 10 μM PL-C, 4 h, with IL-12 or IL-15; listed as PL-C
Description: (A) Purified human primary NK cells were treated with 10 μM PL-C in the presence of IL-2 (10 ng/mL) or IL-15 (100 ng/mL) for 12 hours. DMSO-treated cells served as vehicle controls. Cell pellets were harvested to extract total RNA for real-time RT-PCR to determine mRINA expression levels of IL-12Rβ1, IL-12Rβ2, IL-15Rα and IL-15β. Data are shown as means of 3 donors, * and ** indicate p<0.05 and p<0.01, respectively, which denote a statistical comparison between the two marked treatment groups. Error bars represent S.D. (B, C) Purified primary NK cells (B) or NKL cells (C) were treated with 5 or 10 μM PL-C in the presence of IL-12 (10 ng/mL) or IL-15 (100 ng/mL) for 4 hours. DMSO-treated cells served as vehicle controls. Cell pellets were harvested for subsequent immunoblotting of T-BET, phosphorylated STAT3 (p-STAT3), p-STAT4, p-STAT5, STAT3, STAT4, and STAT5. Data represent 1 out of 3 donors with similar data (B) and 3 independent experiments with similar results (C). Numbers underneath each lane represent quantification of detected protein by densitometry, after normalizing to β-actin.
(§1) Immunoblotting. Immunoblotting was performed as described previously (Yu J et al. Immunity 2006, 24, 575-590; Yu J et al. Blood 2010, 115, 274-281). […]

[3] = system: CCD-112CoN normal human colon cells; test: Cytotoxicity against CCD-112CoN cells
Description: Following a previous procedure (Still P C et al. J. Nat. Prod. 2013, 76, 243-249) and the method for screening cytotoxicity towards HT-29 cells mentioned above, the cytotoxicity of the samples was screened against CCD-112CoN normal human colon cells.

[4] = system: C3-3P NF-κB p65 binding site of the IFNG promoter; test: EMSA and ChIP of p65 binding to the IFNG promoter; format: cell-based, human; conditions: 10 μM PL-C with IL-12 (10 ng/mL), 12 h, ChIP
Description: (A) Schematic of IFNG promoter potential binding sites for p65 (45). (B) NK cells purified from healthy donors were treated with 10 μM PL-C or DMSO vehicle control in the presence of IL-12 (10 ng/mL) for 12 h. Cell pellets were harvested for nuclear extraction, followed by EMSA with a ^32P-labeled oligonucleotide containing the C3-3P NF-κB p65 binding site of the IFNG promoter. Data shown represent one of three donors with similar results. (C) Cells were treated as described in (B), and the cell pellets were harvested to extract protein for ChIP assay of p65 binding to the IFNG promoter locus C3-3P. Mean of relative association of p65 at the IFNG promoter locus C3-3P from three independent experiments is shown. *p<0.05, compared with cells treated with IL-12 alone. Error bars represent S.D.
EMSA. Nuclear extracts were isolated using a nuclear extract kit, according to the manufacturer's instruction (Active Motif, Carlsbad, Calif.). EMSA was performed as described previously (Bachmeyer C et al. Nucleic Acids Res, 1999, 27, 643-648). […]
Chromatin immunoprecipitation. […] DNA precipitated by the anti-p65 or the normal IgG Abs was quantified by real-time PCR, and values were normalized to input DNA.

NF-κB p65 = test: Immunoblotting of p65 and p-p65 in NK cells; format: cell-based, human; conditions: 5 and 10 μM PL-C, 18 h
Description: (A) Purified primary human NK cells were treated with 5 and 10 μM PL-C for 18 h. The cells were harvested and lysed for immunoblotting using p65 and p-p65 Abs. β-Actin immunoblotting was included as the internal control. Data shown are for treatment with PL-C alone (top panel) or in combination with IL-12 (10 ng/mL) (middle panel) or IL-15 (100 ng/mL) (bottom panel) and are the representative plots of four donors with similar results. Numbers under each lane represent quantification of p-p65 or p65 via densitometry, after normalizing to β-actin. (B) NKL cells were treated, and data are presented as described in (A). Data from one of three independent experiments with similar results are shown. (C) Purified primary human NK (left panel) or NKL cells (right panel) were cotreated with 10 μM PL-C and IL-12 (10 ng/mL) in the presence or absence of the NF-κB inhibitor TPCK (10 μM) for 18 h. Supernatants were assayed for IFN-γ secretion by ELISA (top panel), and cells were harvested and lysed for immunoblotting of p-p65 (bottom panel). Representative data from one of three donors with the similar data (left panel) and the summary of three independent experiments with similar results (right panel) are shown. **p<0.01. Error bars represent SD.
as §1

For `COc1cc2c(OC3OCC(O)C(O)C3O)c3c(c(-c4ccc5c(c4)OCO5)c2cc1OC)C(=O)OC3` (stereo not drawn) [Compound 4, Phyllanthusmin C], the IC50 [1] was 3.2 µM, the “total or phosphorylated STAT3, STAT4, STAT5 and T-BET in NK or NKL cells” value [2] was “No upregulation; also recorded: no significant change of T-BET” and the “cytotoxicity toward CCD-112CoN human normal colon cells (in words)” value [3] was “non-cytotoxic”. The IC50 ([3]; read-out: IC50 values toward the CCD-112 CoN cells, Table 6) was > 100 µM, the “p65 binding to the C3-3P site of the IFNG promoter” value [4] was “enhanced p65 binding to the C3-3P binding site” and the “NF-κB p65 phosphorylation in primary NK and NKL cells” value (NF-κB p65) was “increased”.
